In the NIST ThermoML archive (doi:10.1021/je4009238):
Numbers after ± are expanded uncertainties.

Columns and labels:
[1] = xn = mol fraction of the nth substance listed; conditions: 101 kPa, Liquid
[2] = refractive index (Na D-line) (dimensionless); xn = mol fraction of the nth substance listed; conditions: 101 kPa, Liquid

CCCCn1cc[n+](C)c1.[Cl-] [1-butyl-3-methylimidazolium chloride] + CN(C)C=O
Conditions | mass density, [1] [kg/m3] | refractive index, [2] | viscosity, [1] [mPa·s]
288.15 K, x1 = 0.0086 | 957.7 ± 0.81 | 1.43562 ± 0.00063 | 1.064 ± 0.11
288.15 K, x1 = 0.0172 | 961.03 ± 0.79 | 1.43757 ± 0.00063 | 1.13 ± 0.12
288.15 K, x1 = 0.026 | 964.09 ± 0.77 | 1.4401 ± 0.00063 | 1.234 ± 0.12
288.15 K, x1 = 0.0351 | 967.36 ± 0.75 | 1.44223 ± 0.00063 | 1.358 ± 0.13
288.15 K, x1 = 0.0443 | 970.51 ± 0.74 | 1.44442 ± 0.00063 | 1.441 ± 0.13
288.15 K, x1 = 0.0541 | 973.65 ± 0.72 | 1.4466 ± 0.00063 | 1.571 ± 0.14
288.15 K, x1 = 0.0638 | 976.87 ± 0.7 | 1.44861 ± 0.00063 | 1.678 ± 0.15
288.15 K, x1 = 0.0738 | 979.65 ± 0.68 | 1.45083 ± 0.00063 | 1.865 ± 0.16
288.15 K, x1 = 0.0841 | 982.76 ± 0.66 | 1.45282 ± 0.00063 | 2.004 ± 0.17
288.15 K, x1 = 0.0947 | 985.77 ± 0.65 | 1.45492 ± 0.00063 | 2.24 ± 0.18
288.15 K, x1 = 0.1056 | 988.72 ± 0.63 | 1.45766 ± 0.00063 | 2.397 ± 0.19
288.15 K, x1 = 0.1167 | 991.56 ± 0.61 | 1.45909 ± 0.00063 | 2.589 ± 0.2
288.15 K, x1 = 0.1282 | 994.51 ± 0.6 | 1.46111 ± 0.00063 | 2.95 ± 0.22
288.15 K, x1 = 0.1399 | 997.33 ± 0.58 | 1.46315 ± 0.00063 | 3.196 ± 0.24
288.15 K, x1 = 0.152 | 1000.15 ± 0.57 | 1.46516 ± 0.00063 | 3.685 ± 0.27
298.15 K, x1 = 0.0086 | 948.35 ± 0.87 | 1.43088 ± 0.00063 | 0.9285 ± 0.11
298.15 K, x1 = 0.0172 | 951.98 ± 0.85 | 1.43313 ± 0.00063 | 0.9836 ± 0.11
298.15 K, x1 = 0.026 | 954.91 ± 0.83 | 1.43537 ± 0.00063 | 1.069 ± 0.12
298.15 K, x1 = 0.0351 | 958.49 ± 0.81 | 1.43761 ± 0.00063 | 1.173 ± 0.12
298.15 K, x1 = 0.0443 | 961.51 ± 0.79 | 1.4398 ± 0.00063 | 1.234 ± 0.12
298.15 K, x1 = 0.0541 | 964.75 ± 0.77 | 1.44206 ± 0.00063 | 1.343 ± 0.13
298.15 K, x1 = 0.0638 | 968.06 ± 0.75 | 1.44422 ± 0.00063 | 1.444 ± 0.14
298.15 K, x1 = 0.0738 | 970.86 ± 0.74 | 1.44638 ± 0.00063 | 1.59 ± 0.14
298.15 K, x1 = 0.0841 | 974.08 ± 0.72 | 1.44852 ± 0.00063 | 1.679 ± 0.15
298.15 K, x1 = 0.0947 | 977.24 ± 0.7 | 1.45063 ± 0.00063 | 1.8 ± 0.16
298.15 K, x1 = 0.1056 | 980.16 ± 0.68 | 1.45271 ± 0.00063 | 1.978 ± 0.17
298.15 K, x1 = 0.1167 | 983.01 ± 0.67 | 1.45475 ± 0.00063 | 2.126 ± 0.17
298.15 K, x1 = 0.1282 | 986.1 ± 0.65 | 1.45676 ± 0.00063 | 2.379 ± 0.19
298.15 K, x1 = 0.1399 | 988.96 ± 0.63 | 1.45871 ± 0.00063 | 2.582 ± 0.2
298.15 K, x1 = 0.152 | 991.87 ± 0.61 | 1.46064 ± 0.00063 | 2.907 ± 0.22
308.15 K, x1 = 0.0086 | 938.9 ± 0.93 | 1.42611 ± 0.00063 | 0.8223 ± 0.1
308.15 K, x1 = 0.0172 | 942.61 ± 0.91 | 1.42836 ± 0.00063 | 0.8668 ± 0.11
308.15 K, x1 = 0.026 | 945.63 ± 0.89 | 1.4306 ± 0.00063 | 0.9394 ± 0.11
308.15 K, x1 = 0.0351 | 949.34 ± 0.87 | 1.43285 ± 0.00063 | 1.022 ± 0.11
308.15 K, x1 = 0.0443 | 952.42 ± 0.85 | 1.43505 ± 0.00063 | 1.097 ± 0.12
308.15 K, x1 = 0.0541 | 955.77 ± 0.83 | 1.43731 ± 0.00063 | 1.166 ± 0.12
308.15 K, x1 = 0.0638 | 959.15 ± 0.81 | 1.43948 ± 0.00063 | 1.239 ± 0.12
308.15 K, x1 = 0.0738 | 962.05 ± 0.79 | 1.44163 ± 0.00063 | 1.362 ± 0.13
308.15 K, x1 = 0.0841 | 965.29 ± 0.77 | 1.44378 ± 0.00063 | 1.432 ± 0.13
308.15 K, x1 = 0.0947 | 968.56 ± 0.75 | 1.4459 ± 0.00063 | 1.524 ± 0.14
308.15 K, x1 = 0.1056 | 971.53 ± 0.73 | 1.44799 ± 0.00063 | 1.665 ± 0.15
308.15 K, x1 = 0.1167 | 974.49 ± 0.72 | 1.45003 ± 0.00063 | 1.782 ± 0.15
308.15 K, x1 = 0.1282 | 977.64 ± 0.7 | 1.45205 ± 0.00063 | 1.963 ± 0.17
308.15 K, x1 = 0.1399 | 980.61 ± 0.68 | 1.45401 ± 0.00063 | 2.135 ± 0.18
308.15 K, x1 = 0.152 | 983.6 ± 0.67 | 1.45595 ± 0.00063 | 2.351 ± 0.19
318.15 K, x1 = 0.0086 | 929.42 ± 0.99 | 1.42147 ± 0.00063 | 0.7351 ± 0.098
318.15 K, x1 = 0.0172 | 933.2 ± 0.96 | 1.42379 ± 0.00063 | 0.772 ± 0.1
318.15 K, x1 = 0.026 | 936.41 ± 0.94 | 1.42611 ± 0.00063 | 0.8352 ± 0.1
318.15 K, x1 = 0.0351 | 940.14 ± 0.92 | 1.42842 ± 0.00063 | 0.8995 ± 0.11
318.15 K, x1 = 0.0443 | 943.38 ± 0.9 | 1.43069 ± 0.00063 | 0.9641 ± 0.11
318.15 K, x1 = 0.0541 | 946.75 ± 0.88 | 1.43303 ± 0.00063 | 1.026 ± 0.11
318.15 K, x1 = 0.0638 | 950.28 ± 0.86 | 1.43526 ± 0.00063 | 1.078 ± 0.12
318.15 K, x1 = 0.0738 | 953.24 ± 0.84 | 1.43748 ± 0.00063 | 1.175 ± 0.12
318.15 K, x1 = 0.0841 | 956.58 ± 0.82 | 1.4397 ± 0.00063 | 1.241 ± 0.12
318.15 K, x1 = 0.0947 | 959.89 ± 0.8 | 1.44188 ± 0.00063 | 1.311 ± 0.13
318.15 K, x1 = 0.1056 | 962.99 ± 0.79 | 1.44402 ± 0.00063 | 1.424 ± 0.13
318.15 K, x1 = 0.1167 | 966.03 ± 0.77 | 1.44612 ± 0.00063 | 1.518 ± 0.14
318.15 K, x1 = 0.1282 | 969.28 ± 0.75 | 1.4482 ± 0.00063 | 1.651 ± 0.15
318.15 K, x1 = 0.1399 | 972.26 ± 0.73 | 1.45021 ± 0.00063 | 1.796 ± 0.16
318.15 K, x1 = 0.152 | 975.4 ± 0.72 | 1.45219 ± 0.00063 | 1.944 ± 0.16
